# Source: ChEMBL document CHEMBL4052617, “Antibacterial activity of N-methylbenzofuro[3,2-b]quinoline and N-methylbenzoindolo[3,2-b]-quinoline derivatives and study of their mode of action” (2017)
# Experiments:
# Type in all cases: functional
# Enterococcus faecium [1] = assay: Antibacterial activity against antibiotic-susceptile Enterococcus faecium ATCC 49624 after 18 hrs by brain heart infusion broth microdilution method; conditions: ATCC 49624, 18 h
# Enterococcus faecium [2] = assay: Antibacterial activity against vancomycin-resistant Enterococcus faecium ATCC 700221 after 18 hrs by brain heart infusion broth microdilution method; conditions: ATCC 700221, 18 h
# Bacillus subtilis = assay: Antibacterial activity against Bacillus subtilis 168 after 18 hrs by Mueller-Hinton broth microdilution method; conditions: subsp. subtilis str. 168, 18 h
# Staphylococcus aureus [3] = assay: Antibacterial activity against Staphylococcus aureus ATCC 29213 after 18 hrs by cation adjusted Mueller-Hinton broth microdilution method; conditions: ATCC 29213, 18 h
# Staphylococcus aureus [4] = assay: Antibacterial activity against methicillin-resistant Staphylococcus aureus ATCC BAA41 after 18 hrs by cation adjusted Mueller-Hinton broth microdilution method; conditions: ATCC BAA41, 18 h
# Escherichia coli [5] = assay: Antibacterial activity against Escherichia coli ATCC 25922 after 18 hrs by Mueller-Hinton broth microdilution method; conditions: ATCC 25922, 18 h
# Escherichia coli [6] = assay: Antibacterial activity against Escherichia coli ATCC […] expressing NDM-1 beta-lactamase after 18 hrs by Mueller-Hinton broth microdilution method
# Pseudomonas aeruginosa = assay: Antibacterial activity against multidrug-resistant Pseudomonas aeruginosa ATCC BAA2108 after 18 hrs by Mueller-Hinton broth microdilution method; conditions: ATCC BAA2108, 18 h
# Klebsiella pneumoniae = assay: Antibacterial activity against Klebsiella pneumoniae ATCC BAA2470 expressing NDM-1 beta-lactamase after 18 hrs by Mueller-Hinton broth microdilution method; conditions: ATCC BAA2470, 18 h
SMILES,MIC (Enterococcus faecium [1]),MIC (Enterococcus faecium [2]),MIC (Bacillus subtilis),MIC (Staphylococcus aureus [3]),MIC (Staphylococcus aureus [4]),MIC (Escherichia coli [5]),MIC (Escherichia coli [6]),MIC (Pseudomonas aeruginosa),MIC (Klebsiella pneumoniae)
CCc1ccc(Nc2c3ccccc3[n+](C)c3c2[nH]c2ccccc23)cc1.[I-],6 µg/mL,6 µg/mL,4 µg/mL,4 µg/mL,4 µg/mL,8 µg/mL,8 µg/mL,64 µg/mL,64 µg/mL
COc1ccc2cc3[n+](cc2c1OC)CCc1cc2c(cc1-3)OCO2.[Cl-] [BERBERINE CHLORIDE],> 192 µg/mL,> 192 µg/mL,128 µg/mL,128 µg/mL,192 µg/mL,> 192 µg/mL,> 192 µg/mL,> 192 µg/mL,> 192 µg/mL
CCOc1ccc(Nc2c3ccccc3[n+](C)c3c2[nH]c2ccccc23)cc1.[I-],4 µg/mL,4 µg/mL,2 µg/mL,2 µg/mL,2 µg/mL,6 µg/mL,6 µg/mL,48 µg/mL,48 µg/mL
C[n+]1c2ccccc2c(Nc2ccc(Cl)cc2)c2[nH]c3ccccc3c21.[I-],6 µg/mL,6 µg/mL,4 µg/mL,4 µg/mL,4 µg/mL,8 µg/mL,8 µg/mL,64 µg/mL,64 µg/mL
C[n+]1c2ccccc2c(Nc2cccc(F)c2)c2[nH]c3ccccc3c21.[I-],6 µg/mL,6 µg/mL,6 µg/mL,6 µg/mL,6 µg/mL,12 µg/mL,12 µg/mL,> 64 µg/mL,> 64 µg/mL
Cc1cc(F)ccc1Nc1c2ccccc2[n+](C)c2c1[nH]c1ccccc12.[I-],8 µg/mL,8 µg/mL,4 µg/mL,4 µg/mL,4 µg/mL,8 µg/mL,8 µg/mL,64 µg/mL,64 µg/mL
C[n+]1c2ccccc2c(Nc2ccccc2)c2oc3ccccc3c21.[I-],12 µg/mL,12 µg/mL,8 µg/mL,8 µg/mL,8 µg/mL,16 µg/mL,16 µg/mL,> 64 µg/mL,> 64 µg/mL
C[n+]1c2ccccc2c(Nc2ccc(Cl)cc2)c2oc3ccccc3c21.[I-],8 µg/mL,8 µg/mL,6 µg/mL,6 µg/mL,6 µg/mL,12 µg/mL,12 µg/mL,> 64 µg/mL,> 64 µg/mL
COc1cccc(OC)c1C(=O)N[C@@H]1C(=O)N2[C@@H]1SC(C)(C)[C@@H]2C(=O)O [METHICILLIN],–,–,0.5 µg/mL,1 µg/mL,> 192 µg/mL,4 µg/mL,> 192 µg/mL,> 192 µg/mL,> 192 µg/mL
CN[C@H](CC(C)C)C(=O)N[C@H]1C(=O)N[C@@H](CC(N)=O)C(=O)N[C@H]2C(=O)N[C@H]3C(=O)N[C@H](C(=O)N[C@H](C(=O)O)c4cc(O)cc(O)c4-c4cc3ccc4O)[C@H](O)c3ccc(c(Cl)c3)Oc3cc2cc(c3O[C@@H]2O[C@H](CO)[C@@H](O)[C@H](O)[C@H]2O[C@H]2C[C@](C)(N)[C@H](O)[C@H](C)O2)Oc2ccc(cc2Cl)[C@H]1O [VANCOMYCIN],–,> 64 µg/mL,1 µg/mL,–,–,2 µg/mL,6 µg/mL,> 64 µg/mL,> 64 µg/mL
Cc1cc(F)ccc1Nc1c2ccccc2[n+](C)c2c1oc1ccccc12.[I-],8 µg/mL,8 µg/mL,6 µg/mL,6 µg/mL,6 µg/mL,12 µg/mL,12 µg/mL,> 64 µg/mL,> 64 µg/mL
Cc1ccccc1Nc1c2ccccc2[n+](C)c2c1oc1ccccc12.[I-],12 µg/mL,12 µg/mL,8 µg/mL,8 µg/mL,8 µg/mL,16 µg/mL,16 µg/mL,> 64 µg/mL,> 64 µg/mL
Cc1cc(C)cc(Nc2c3ccccc3[n+](C)c3c2[nH]c2ccccc23)c1.[I-],8 µg/mL,8 µg/mL,4 µg/mL,4 µg/mL,4 µg/mL,8 µg/mL,8 µg/mL,> 64 µg/mL,> 64 µg/mL
COc1ccccc1Nc1c2ccccc2[n+](C)c2c1[nH]c1ccccc12.[I-],8 µg/mL,8 µg/mL,4 µg/mL,4 µg/mL,4 µg/mL,8 µg/mL,8 µg/mL,64 µg/mL,64 µg/mL
CCOc1ccccc1Nc1c2ccccc2[n+](C)c2c1oc1ccccc12.[I-],8 µg/mL,8 µg/mL,6 µg/mL,6 µg/mL,6 µg/mL,12 µg/mL,12 µg/mL,> 64 µg/mL,> 64 µg/mL
COc1cccc(Nc2c3ccccc3[n+](C)c3c2oc2ccccc23)c1.[I-],8 µg/mL,8 µg/mL,6 µg/mL,6 µg/mL,6 µg/mL,12 µg/mL,12 µg/mL,> 64 µg/mL,> 64 µg/mL

SMILES,MIC (Enterococcus faecium [1]),MIC (Enterococcus faecium [2]),MIC (Bacillus subtilis),MIC (Staphylococcus aureus [3]),MIC (Staphylococcus aureus [4]),MIC (Escherichia coli [5]),MIC (Escherichia coli [6]),MIC (Pseudomonas aeruginosa),MIC (Klebsiella pneumoniae)
CCc1ccc(Nc2c3ccccc3[n+](C)c3c2oc2ccccc23)cc1.[I-],8 µg/mL,8 µg/mL,6 µg/mL,6 µg/mL,6 µg/mL,12 µg/mL,12 µg/mL,> 64 µg/mL,> 64 µg/mL
COc1ccccc1Nc1c2ccccc2[n+](C)c2c1oc1ccccc12.[I-],8 µg/mL,8 µg/mL,6 µg/mL,6 µg/mL,6 µg/mL,12 µg/mL,12 µg/mL,> 64 µg/mL,> 64 µg/mL
C[n+]1c2ccccc2c(Nc2ccc(F)cc2)c2oc3ccccc3c21.[I-],8 µg/mL,8 µg/mL,6 µg/mL,6 µg/mL,6 µg/mL,12 µg/mL,12 µg/mL,> 64 µg/mL,> 64 µg/mL
Cc1ccc(Nc2c3ccccc3[n+](C)c3c2oc2ccccc23)cc1F.[I-],8 µg/mL,8 µg/mL,6 µg/mL,6 µg/mL,6 µg/mL,12 µg/mL,12 µg/mL,> 64 µg/mL,> 64 µg/mL
CCOc1ccc(Nc2c3ccccc3[n+](C)c3c2oc2ccccc23)cc1.[I-],8 µg/mL,8 µg/mL,4 µg/mL,4 µg/mL,4 µg/mL,8 µg/mL,8 µg/mL,64 µg/mL,64 µg/mL
C[n+]1c2ccccc2c(Nc2ccc(F)cc2)c2[nH]c3ccccc3c21.[I-],8 µg/mL,8 µg/mL,4 µg/mL,4 µg/mL,4 µg/mL,8 µg/mL,8 µg/mL,64 µg/mL,64 µg/mL
CCOc1ccccc1Nc1c2ccccc2[n+](C)c2c1[nH]c1ccccc12.[I-],6 µg/mL,6 µg/mL,4 µg/mL,4 µg/mL,4 µg/mL,8 µg/mL,8 µg/mL,64 µg/mL,64 µg/mL
C[n+]1c2ccccc2c(Nc2ccc(F)cc2F)c2oc3ccccc3c21.[I-],8 µg/mL,8 µg/mL,6 µg/mL,6 µg/mL,6 µg/mL,12 µg/mL,12 µg/mL,> 64 µg/mL,> 64 µg/mL
Cc1ccc(Nc2c3ccccc3[n+](C)c3c2[nH]c2ccccc23)cc1.[I-],6 µg/mL,6 µg/mL,4 µg/mL,4 µg/mL,4 µg/mL,8 µg/mL,8 µg/mL,64 µg/mL,64 µg/mL
Cc1ccc(Nc2c3ccccc3[n+](C)c3c2[nH]c2ccccc23)cc1F.[I-],8 µg/mL,8 µg/mL,4 µg/mL,4 µg/mL,4 µg/mL,8 µg/mL,8 µg/mL,64 µg/mL,64 µg/mL
Cc1ccc(Nc2c3ccccc3[n+](C)c3c2oc2ccccc23)cc1C.[I-],8 µg/mL,8 µg/mL,6 µg/mL,6 µg/mL,6 µg/mL,12 µg/mL,12 µg/mL,> 64 µg/mL,> 64 µg/mL
C[n+]1c2ccccc2c(Nc2ccc(OC(F)(F)F)cc2)c2oc3ccccc3c21.[I-],6 µg/mL,6 µg/mL,4 µg/mL,4 µg/mL,4 µg/mL,8 µg/mL,8 µg/mL,64 µg/mL,64 µg/mL
Cc1ccc(Nc2c3ccccc3[n+](C)c3c2[nH]c2ccccc23)cc1C.[I-],8 µg/mL,8 µg/mL,4 µg/mL,4 µg/mL,4 µg/mL,8 µg/mL,8 µg/mL,> 64 µg/mL,> 64 µg/mL
Cc1cc(C)cc(Nc2c3ccccc3[n+](C)c3c2oc2ccccc23)c1.[I-],8 µg/mL,8 µg/mL,6 µg/mL,6 µg/mL,6 µg/mL,12 µg/mL,12 µg/mL,> 64 µg/mL,> 64 µg/mL
C[n+]1c2ccccc2c(Nc2ccc(OC(F)(F)F)cc2)c2[nH]c3ccccc3c21.[I-],4 µg/mL,4 µg/mL,2 µg/mL,2 µg/mL,2 µg/mL,6 µg/mL,6 µg/mL,48 µg/mL,48 µg/mL
